# Measured values taken from patent US6716635B2, “Method for identifying regulators of protein-advanced glycation end product (protein-AGE) formation” (University of Kentucky Research Foundation, priority 2000, dated 2004).
# Legend:
# [1] = test system: histone H1 (glycation by ADP-ribose); experiment: AGE-fluorescence screening of glycation inhibitors, histone H1 + ADP-ribose, 96 well microtiter plates; format: biochemical, calf; conditions: for inhibition of AGE-fluorescence, in words: 1 to 10 mM, 5 days; for AGE-fluorescence (day 5): 5 days incubation; for % inhibition: AGE-fluorescence day 5; for AGE-fluorescence (day 0): value (spread)
# Method: A 96-well, microtiter plate was used to carry out 48 reactions in duplicate. […] A second pair of wells contains the reactants and the known glycation inhibitor aminoguanidine, and functions as a positive control. Histone H1 is commercially available, and can be prepared following the procedures set out in Johns, et al., Biochem J. 92:55-59(1964), which is incorporated by reference herein.
# The reaction system is 50 mM potassium phosphate buffer, at pH 7.4 to which 1.5 mg/ml histone H1 and 1.0 mM ADP-ribose were added. Reaction volume was 300 ul. AGE-fluorescence was measured over time, with incubation at 37° C., at 355 nm (ex) and 405 nm (em). Upon comparison to the control, a test compound was deemed potentially positive if AGE-fluorescence was suppressed.
# The histone H1 (1.5 mg/ml) was combined with 1 mM ADP-ribose, in […] KH2PO4 buffer (pH 7.4, 37° C., 0.015% NaN3 added, to inhibit microbial growth). This reaction mixture was added, to 96 well microtiter plates. Test compounds were added to the reaction mixture, at concentrations ranging from 1 to 10 mM, in reaction volumes of 300 ul. Texts were run in duplicate.
# Accumulated protein damage was determined by measuring AGE-fluorescence, at wavelengths (λex=370 nm; λ em=440 nm. The fluorescence is suppressed in the presence of compounds with inhibitory activity. Assays were read on a conventional microtiter plate, with a filter setting that approached the above conditions (λ ex: 355 nm, λ […]: 405 nm), which is in the range of the broad excitation/emission maxima of AGE compounds.
# The fluorescence was measured at the beginning, and after 5 days of incubation.
# The known glycation inhibitor aminoguanidine was used as a control.
# [2] = test system: histone H1 (cross linking by ADP-ribose); experiment: glycation induced cross linking of histone H1, 12% SDS-PAGE, silver staining; format: biochemical, calf; conditions: aliquots of 5 day incubation mixtures
# Method: This example describes a secondary screening, to further evaluate compounds which were deemed positive following the assays of examples 1 and 2. Specifically, it will be recalled that each sample was tested in two wells, one of which was tested in example 2, supra. The sample not used was analyzed, via 12% SDS-PAGE, followed by silver staining, in order to visualize protein cross-linking. This serves as an independent measure of glycation caused protein damage. […] To test this, reaction aliquots of the 5 day incubation mixtures, described in Example 1, supra, were assessed on 12% SDS-PAGE. Both untreated histone H1, and the aminoguanidine containing positive control were tested in the same way. All were visualized by silver staining.
# [3] = test system: CF-3 (human dermal fibroblasts); experiment: protection against α-dicarbonyl toxicity in fibroblasts, cell count; format: cell-based; conditions: for protection against methylglyoxal induced growth inhibition: compound 1 mM added 15 minutes prior to methylglyoxal
# Method: (§1) Continuously cultured cell lines “He-Cat” (human epidermal keratinocytes), and “CF-3” (human dermal fibroblasts), were cultured under standard conditions, divided biweekly into DMEM containing 10% fetal bovine serum, and were kept in a humidified atmosphere containing 5% CO2 at 37° C. In order to divide the cells, 5% trypsin was used on the keratinocytes, and 1% trypsin was used on the fibroblasts.
# (§2) Keratinocytes were seeded at 2×10^4 cells/well, and fibroblasts at 4×10^4 cells/well, using 6 well dishes. The cells were allowed to attach to the plate overnight. Either D-penicillamine or aminoguanidine (1 mM each) was added to the plates 15 minutes prior to addition of glyoxal or methylglyoxal. The α-dicarbonyl was left for 72 hours. Varying concentrations of the α-dicarbonyl were used. Cells were counted with a Coulter counter after 72 hours of stress. Cultures were also run where the glyoxal or methylglyoxal was used without the scavenger. L-alanine was used as a negative control as it was not expected to have protective effect.
# [4] = test system: He-Cat (human epidermal keratinocytes); experiment: protection against α-dicarbonyl toxicity in keratinocytes, cell count; format: cell-based; conditions: for protection against methylglyoxal induced growth inhibition: compound 1 mM added 15 minutes prior to methylglyoxal; for protection against growth inhibition by glyoxal: compound 1 mM added 15 minutes prior to glyoxal
# Method: as §1, §2
# [5] = α-dicarbonyl trapping, reaction with phenylglyoxal followed by HPLC
# Method: To learn more about the reaction, D-penicillamine was reacted with phenylglyoxal. In the fashion described supra, phenylgyloxal, at final concentration of 10 mM, and D-penicillamine, at final concentration of 20 mM were reacted in 50 mM KH2PO4 buffer, pH 7.4, at room temperature. Reaction progress was monitored via HPLC analysis of reaction aliquots at 254 nm. After 40 minutes, more than 90% conversion of phenylgloxal peak into a single peak was observed. The product was obtained via preparative HPLC, was lyophilized, and analyzed by H-NMR spectroscopy.
# Reactions were carried out in 10 mM phosphate buffer, pH 7.4, at 37° C., and were followed by HPLC analysis. Phenylglyoxal was used at a concentration of 50 mM, while D-penicillamine and aminoguanidine were used at concentrations of 250 mM, and 500 mM. The phenylglyoxal was used as a UV active, α-oxoaldehyde compound. Over the course of the reaction, aliquots were analyzed via HPLC. […] Initial reaction rates of phenylglyoxal and test compounds were monitored by following the disappearance of phenylglyoxal over time. […]
# The measured, first order rate constant (k1st) was used to calculate the second order rate constant (k2nd), according to: […]
# The calculated second order rate constants were determined at two reactant rates (5:1, and 10:1), and were in good agreement.
# [6] = aldehyde trapping, reaction with phenylacetaldehyde followed by HPLC; conditions: same manner as phenylglyoxal
# Method: Reactions were carried out in 10 mM phosphate buffer, pH 7.4, at 37° C., and were followed by HPLC analysis. Phenylglyoxal was used at a concentration of 50 mM, while D-penicillamine and aminoguanidine were used at concentrations of 250 mM, and 500 mM. The phenylglyoxal was used as a UV active, α-oxoaldehyde compound. Over the course of the reaction, aliquots were analyzed via HPLC. For reactions involving D-penicillamine, aliquots were taken at 20 second intervals and kept on dry ice for analysis. Initial reaction rates of phenylglyoxal and test compounds were monitored by following the disappearance of phenylglyoxal over time. D-penicillamine trapped phenylglyoxal more than 60 times faster than aminoguanidine. In order to determine if the α-oxo substitution had any impact on the progress of the aldehyde trapping reaction, the reactivity of D-penicillamine with the aldehyde corresponding to phenylglyoxal, i.e., phenylacetaldehyde, was carried out, in the same manner as is described herein.
# [7] = test system: histone H1 (carbonylation); experiment: histone H1 carbonylation by reducing sugars, and interference by compounds; format: biochemical; conditions: compound 5 mM
# Method: Both protein cross-linking and protein carbonylation are well established indicia of protein glycation. See Schacter, et al., Free Radic Biol Med. 17:429-437 (1994), incorporated by reference. In brief, following the assays described infra, formation of protein cross-linking was measured on 12% SDS-PAGE, followed by Coomassie and silver staining. Cross-linking was detectable with a high degree of sensitivity, when the reaction between ADP-ribose and histone H1 was carried out at pH 9.0. […] In FIG. 8, the abbreviations “M,” “D”, and “O” represent “monomer,” “dimer” and “oligomer,” respectively. Silver staining is the preferred way of determining the cross linking. Protein carbonlyation was determined via Western blotting. Specifically, AGE-BSA, which had been prepared by incubating BSA with 1.66M glucose, at pH 7.4 for 90 days at 37° C., was recognized after being derivatized with 2.4 dinitrophenlyhydrazine (“DNP”), when tested with antibodies specific for protein bound, DNP epitopes.
# A series of experiments were carried out to compare different reducing sugars as glycation agents. In addition to ADP-ribose, ADP-glucose, D-ribose and D-glucose were tested. Briefly, histone H1 was combined with 1 mM of each sugar, and the mixture was incubated at pH 7.4. After 7 days of incubation, reaction aliquots were analyzed on 12% SDS-PACE gels, with silver staining. Results are presented in FIGS. 19A and B. In each of these, lane 1 is a control, with no sugar added, while lanes 2-5 show results using D-glucose, D-ribose, ADP-glucose, and ADP-ribose, respectively. […] The amount of carbonylation caused by ADP-ribose (0.82 mole/mole histone H1), and D-ribose (0.06 mole/mole histone H1) correlated with immunostaining.
# In order to determine if the carbonylation of histone H1 by ADP-ribose involved an oxidative pathway, several compounds, known to interfere with glycoxidation of proteins by D-glucose were tested to determine if they interfered with this action by ADP-ribose. The compounds tested included 5 mM DTPA under argon, 5 mM aminoguanidine, 5 mM N^α acetyl L-cysteine, 5 mM mannitol, and 100 units/ml catalase.
# [8] = increased concentration of D-penicillamine, methylglyoxal
# [9] = treated with 6004M methylglyoxal (so in the source)
Compound,"inhibition of AGE-fluorescence, in words [1]",AGE-fluorescence (day 5) ([1]; compound 1 mM),% inhibition ([1]; compound 1 mM) [%],AGE-fluorescence (day 0) ([1]; compound 1 mM),AGE-fluorescence (day 5) ([1]; compound 5 mM),% inhibition ([1]; compound 5 mM) [%],AGE-fluorescence (day 0) ([1]; compound 5 mM),AGE-fluorescence (day 5) ([1]; compound 10 mM),% inhibition ([1]; compound 10 mM) [%],AGE-fluorescence (day 0) ([1]; compound 10 mM),inhibition of histone H1 cross linking [2],protection against methylglyoxal induced growth inhibition ([3]; 72 hours),protection against methylglyoxal induced growth inhibition ([4]; 72 hours),protection against growth inhibition by glyoxal ([4]; 72 hours),also measured
"CC(C)(S)C(N)C(=O)O (racemic) [D,L-Penicillamine]",the best of the compounds tested,13 (0.0),40,1.1 (0.2),2.7 (0.0),92,1.1 (0.1),1.7 (0.0),97,1.1 (0.1),more potent than aminoguanidine,–,–,–,–
C[C@H](N)C(=O)O [L-alanine],–,–,–,–,–,–,–,–,–,–,–,no protective effect,no protective effect,–,–
CC(=O)C=O [methylglyoxal],–,–,–,–,–,–,–,–,–,–,–,–,–,–,"concentration completely inhibitory to growth ([3]; 72 hours, no scavenger): 600 µM; concentration completely inhibitory to growth ([4]; 72 hours, no scavenger): 600 µM"
"CC(C)(S)[C@@H](N)C(=O)O [D-Penicillamine, reference compound]",the best of the compounds tested,11 (0.6),51,1.2 (0.0),2.9 (0.3),91,1.1 (0.1),1.4 (0.1),99,1.1 (0.0),more potent than aminoguanidine,almost completely blocked methylglyoxal's toxicity,almost completely blocked methylglyoxal's toxicity,appeared to protect keratinocytes against growth inhibition by glyoxal,"conversion of phenylglyoxal peak into a single peak ([5]; phenylglyoxal 10 mM, D-penicillamine 20 mM, 50 mM KH2PO4 pH 7.4, room temperature, after 40 minutes): more than 90%; rate of phenylglyoxal trapping relative to aminoguanidine ([5]; second order rate constants, 10 mM phosphate buffer pH 7.4, 37° C.): more than 60 times faster; efficiency of trapping phenylacetaldehyde relative to phenylglyoxal [6]: about 14 times less efficiently; dose range cyto-protective effect [3, 8]: increased protection; survival [3, 9]: 47%; dose range cyto-protective effect [4, 8]: increased protection; survival [4, 9]: 100%"
NC(=O)C1=CN([C@@H]2O[C@H](COP(=O)(O)OP(=O)(O)OC[C@H]3O[C@@H](n4cnc5c(N)ncnc54)[C@H](O)[C@@H]3O)[C@@H](O)[C@H]2O)C=CC1 [NADH],–,–,–,–,31 (0.0),–,–,–,–,–,no inhibitory activity,–,–,–,–
"N=C(N)NN [Aminoguanidine, aminoguanidine, reference compound]",–,4.3 (0.2),84,1.2 (0.1),2.2 (0.0),96,1.2 (0.1),1.8 (0.0),97,1.3 (0.1),–,rescued both cell lines from methylglyoxal induced growth inhibition in part,rescued both cell lines from methylglyoxal induced growth inhibition in part,appeared to protect keratinocytes against growth inhibition by glyoxal,"suppression of AGE-fluorescence, primary screen outcome ([1]; test compound 5 mM or limit of solubility, pH 7.4, 37° C.): suppresses the glycation of histone H1 by ADP-ribose; interference with carbonylation of histone H1 by ADP-ribose [7]: slight effect"
